Test results: patent publication US12397041B2, “Vasoactive intestinal peptide release from microparticles” (UNIVERSITY OF PITTSBURGH—OF THE COMMONWEALTH SYSTEM OF …, priority 2009, dated 2025)
Entries after “also recorded” stand apart in the source; their conditions may differ. Ends that are not written are not given here.

What was measured:
[1] = test system: dendritic cells; experiment: CCL22 production by dendritic cells (ELISA); type: cell-based, murine; details: LPS-matured DCs, soluble VIP
Protocol: Dendritic cells were isolated from murine bone marrow and cultured following standard procedures.
(§1) In the first two experiments, both GM-CSF and IL-4 were added to DC media (modified RPMI 1640) of bone marrow cell cultures during media changes on Days 0, 3 and 6. In the third experiment, the IL-4 was purposely omitted and GM-CSF was added in 5× concentration. On Day 6, CD11c+ DC cells were isolated using MACS cell sorting beads and plated in a 24-well plate at 100,000 cells/well. Five different groups of four wells each were analyzed and received treatment. […] A mature DC control group received only LPS. Three different groups were matured with LPS and received different concentrations of either soluble VIP or releasates of VIP microparticles or blank microparticles (using the 12.6 kDa polymer).
Dose Response Protocol: Soluble VIP was added in concentrations of 10^−6 M, 10^−8 M, and 10^−9 M to both immature DC groups and DCs matured with LPS. Twelve different groups were matured with LPS and received different concentrations of either blank porous, blank nonporous, VIP porous, or VIP nonporous microparticles (of the 12.6 kDa polymer). Microparticles were added in concentrations of either 2.77 mg/mL, 1.39 mg/mL, and 0.277 mg/mL. In a second DC culture, the low concentration of microparticles was reduced to 0.0556 mg/mL. […]

[2] = test system: FoxP3+CD4+ T-cells; experiment: Chemotaxis of CD4+ T-cells through transwells toward treated DCs, FoxP3+ by flow cytometry; type: cell-based, mouse; details: LPS
Protocol: as §1
Preliminary Protocol: Soluble VIP was added to the third group in concentration of 2.5×10^−8 M. Ten milligrams of microparticles were first incubated for 4-6 hours in media and 250 μL of releasates were added to each well. […]
For chemotaxis studies, in the first two experiments, both GM-CSF and IL-4 were added to DC media (modified RPMI 1640) of bone marrow cell cultures during media changes on Days 0, 3 and 6. […] Five different groups of four wells each were analyzed and received treatment. […]
CD4+ T-cells were isolated from the spleen and lymph nodes of a mouse using Dynal beads following the lab protocol. […] T Cells that flowed through were analyzed for FoxP3+ expression using flow cytometry.

[3] = test system: mice infected with A. actinomycetemcomitans (periodontitis); experiment: Mouse periodontitis model with CCL-22 microparticles / systemic VIP, alveolar bone resorption and Treg recruitment; type: in vivo
Protocol: To this end, B6 mice (n=6) were infected orally with the periodontal pathogen A. actinomycetemcomitans (Aa) and treated with microparticles containing CCL-22 (CCL-22MPs) or empty microparticles (BlankMPs) according to the schedule outlined above. Additionally vasoactive intestinal peptide (VIP) was administered intraperitoneally. Mice receiving only PBS and the thickener carboxymethyl cellulose served as controls (Untreated). Experimental treatments were administered in the periodontal pocket of the right maxilla while left maxillae were used as internal negative controls in each mouse. Alveolar bone loss was quantified as the area between the cementoenamel junction (CEJ) and the alveolar bone crest (ABC) FIG. 23, CEJ and FIG. 23A, ABC). Alveolar bone levels are shown on the left (internal control, FIG. 23A LEFT) and right (BlankMP treated, FIG. 23A RIGHT) maxilla.

[4] = test system: FoxP3, IL-10, RANKL, CCL-22 mRNA in periodontal tissues; experiment: Real-time PCR of markers in periodontal tissues of diseased mice; type: in vivo, mouse; details: systemic injections at days −1, 7, 14, 21, 28
Protocol: To verify that Tregs are recruited toward microparticles that sustain release of CCL-22, formulations were administered into the periodontium of diseased mice. Briefly, mice were orally exposed to the periodontal pathogen A. actinomycetemcomitans (Aar) on day 0, and also received CCL-22 microparticles (CCL-22MPs) or blank (empty) microparticles (BlankMPs) in their periodontal pockets. Specifically, mice received microparticle injections at day −1, 10 and 20, mice treated with VIP injections received systemic injections at days −1, 7, 14, 21, 28. Untreated mice served as negative controls. At day 30, all mice were sacrificed and maxilla's were resected. […] FIG. 22A. […] Figure BIB. […] FIG. 22C.
In this experiment, artificial antigen presenting cells providing a CCL-22 controlled release formulation were injected into palatal gingival tissue of right molars of mice (n=3) at the times of −1, 10 and 20 days of periodontal infection. At 30 days, total RNA was extracted from periodontal tissues as previously described and analyzed for regulatory T-cell and periodontal disease factor. […]
Real-Time PCR Analysis. […] RealTime-PCR quantitative mRNA analyses will be done in a MiniOpticon system (BioRad, Hercules, CA), using SybrGreen Master Mix (Invitrogen), 100 nM specific primers, and 2.5 ng of cDNA in each reaction. […]

[5] = test system: CD4+ T cells (CCR4); experiment: In vitro transwell migration assay toward CCL22; type: cell-based, murine; details: activated vs naïve CD4+ T cells
From the text: (* p<0.05, one-tailed Students ‘t’ test).
Simultaneously, the ability of CCL22 to attract murine T cells was examined. Expression of chemokine receptors for CCL22 (i.e., for example, the CCR4 receptor) are known to control the ability of cells to respond to CCL22 gradients. Moreover, there is evidence that only activated T cells express the CCR4 receptor. Baatar et al., Journal of Immunology 178: 4891-4900 (2007); Lim et al., Journal of Immunology 177:840-851 (2006); and Lee et al., Journal of Experimental Medicine 201:1037-1044 (2005); and FIG. 18A. […] FIG. 18B.

Molecule: vasoactive intestinal peptide (HSDAVFTDNYTRLRKQMAVKKYLNSILN; ends and bridges not checked; UniProt P01282 125-152, looked up) [VIP, neuropeptide of twenty-eight (28) amino acids in length originally isolated from the intestine]
- CCL-22 production relative to mature DC control group [1]: similar
- percent of FoxP3+ cells recruited by DCs ([2]; DC precursors cultured with IL-4 and GM-CSF, soluble VIP 2.5×10^−8 M or releasates): recruited a higher percentage of FoxP3+ cells than DCs that only received LPS or releasates from blank particles
- percent of FoxP3+ cells recruited by DCs ([2]; absence of IL-4, 5× GM-CSF): recruited the same percentage of FoxP3+ cells
- alveolar bone resorption / bone loss ([3]; MPs at day −1, 10, 20, VIP systemic IP, day 30, vs BlankMPs / negative controls): significantly less alveolar bone resorption than BlankMPs
- Treg (FoxP3+ cell) recruitment to gingival / periodontal tissues ([3]; mouse, in vivo): effectively induce Treg migration to periodontal tissues
- endogenous CCL-22 production [4]: induced endogenous production of CCL-22

B1: CCL22: chemokine that binds the CCR4 receptor, involved in migration of regulatory T-cells (protein, UniProt O00626 25-93, looked up)
C-C motif chemokine 22: GPYGANMEDSVCCRDYVRYRLPLRVVKHFYWTSDSCPRPGVVLLTFRDKEICADPRVPWVKMILNKLSQ
- T cell migration towards a CCL22 gradient [5]: significantly greater migration of activated regulatory and effector CD4+ T cells; also recorded: activated T cells (both regulatory and effector cell populations), but not naïve T cells, migrated towards a CCL22 gradient
